According to patent publication US7893256B2, “Azabicycloalkane compounds” (Theravance, Inc., priority 2003, dated 2011):

Biological target: T1, human β2 adrenergic receptor (Homo sapiens, UniProt P07550)
T1 construct: expressed in transfected cells; membranes
Test: Radioligand binding assay for human β2 adrenergic receptor (Assay Test Procedure A)
Procedure: Chinese hamster ovarian (CHO) cell lines stably expressing cloned human β1, β2 or β3 adrenergic receptors, respectively, were grown to near confluency in Hams F-12 media with 10% FBS in the presence of 500 μg/mL Geneticin. The cell monolayer was lifted with 2 mM EDTA in PBS. Cells were pelleted by centrifugation at 1,000 rpm, and cell pellets were either stored frozen at −80° C. or membranes were prepared immediately for use. For preparation of β1 and β2 receptor expressing membranes, cell pellets were re-suspended in lysis buffer (10 mM HEPES/HCl, 10 mM EDTA, pH 7.4 at 4° C.) and homogenized using a tight-fitting Dounce glass homogenizer (30 strokes) on ice. […] The protein concentration of the membrane suspension was determined by the methods described in Lowry et al., 1951, Journal of Biological Chemistry, 193, 265; and Bradford, Analytical Biochemistry, 1976, 72, 248-54. […]
Binding assays were performed in 96-well microtiter plates in a total assay volume of 100 μL with 10-15 μg of membrane protein containing the human β1, β2 or β3 adrenergic receptors in assay buffer (75 mM Tris/HCl pH 7.4 at 25° C., 12.5 mM MgCl2, 1 mM EDTA, 0.2% BSA). […] Non-specific binding was determined in the presence of 10 μM propranolol. […] Filter plates were washed three times with filtration buffer (75 mM Tris/HCl pH 7.4 at 4° C., 12.5 mM MgCl2, 1 mM EDTA) to remove unbound radioactivity. […]

T1 sequence (P07550 whole entry): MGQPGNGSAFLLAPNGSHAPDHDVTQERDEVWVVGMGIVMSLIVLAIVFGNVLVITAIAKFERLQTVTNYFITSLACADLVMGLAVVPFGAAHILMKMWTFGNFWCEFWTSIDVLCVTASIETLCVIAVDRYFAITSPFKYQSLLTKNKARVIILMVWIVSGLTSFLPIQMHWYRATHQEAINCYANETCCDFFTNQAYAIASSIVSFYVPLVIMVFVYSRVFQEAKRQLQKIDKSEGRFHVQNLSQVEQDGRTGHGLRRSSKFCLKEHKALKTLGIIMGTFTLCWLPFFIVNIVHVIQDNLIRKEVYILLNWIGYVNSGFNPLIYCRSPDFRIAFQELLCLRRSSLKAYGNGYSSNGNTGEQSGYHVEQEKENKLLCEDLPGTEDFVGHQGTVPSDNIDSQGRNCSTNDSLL

C[N+]1(CCCCCCCCCNC[C@H](O)c2ccc(O)c3[nH]c(=O)ccc23)C2CC(OC(=O)C(O)(c3cccs3)c3cccs3)CC1C1OC12.C[N+]1(CCCCCCCCCNC[C@H](O)c2ccc(O)c3[nH]c(=O)ccc23)C2CC(OC(=O)C(O)(c3cccs3)c3cccs3)CC1C1OC12.O=C([O-])C(F)(F)F.O=C([O-])C(F)(F)F (stereo partly drawn) [Example 1, 7-(2-Hydroxy-2,2-dithiophen-2-ylacetoxy)-9-{9-[(R)-2-hydroxy-2-(8-hydroxy-2-oxo-1,2-dihydroquinolin-5-yl)ethylamino]nonyl}-9-methyl-3-oxa-9-azonia-tricyclo[3.3.1.0^2,4]nonane Ditrifluoroacetate]
Ki (radioligand displacement, CHO cell membranes, [3H]-dihydroalprenolol): < 0.05 µM
ratio of Ki(β1)/Ki(β2) (receptor subtype selectivity, binding, β2 over β1): greater than 5
